Experimental findings from patent EP4707277A1, “NOVEL HETEROCYCLIC AMINE DERIVATIVES AND PHARMACEUTICAL COMPOSITION COMPRISING SAME” (Daewoong Pharmaceutical Co., Ltd., priority 2023, dated 2024) are described below.

Like-named read-outs stand apart in the source and are kept apart here. Bounds are passed on as bounds.

For one test, the target named is T1, BTK (Homo sapiens, UniProt Q06187).
T1 construct: purchased Signalchem B10-10H
In words: Inhibitory activity against BTK, ADP-Glo Kinase system (Promega). It counts as biochemical. Put shortly:
(§1)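 IC50 values were fitted from kinase reactions run for 1 h at 30°C with either 1 mM ATP or ATP at Km (10 µM for BTK, 25 µM for ITK). Reactions used 0.2 µg/µl poly(Glu4,Tyr1), recombinant human enzyme (BTK 10 ng, ITK 4 ng per reaction) in Tris pH 7.5 Mn/Mg buffer with 1% DMSO. ADP formed was read by ADP-Glo luminescence.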
(ADP-Glo first removes unused ATP, then detects ADP through luciferase.)

For a further test, the target named is T2, ITK (Homo sapiens, UniProt Q08881).
T2 construct: purchased Signalchem I13-11G-10
T2 sequence (Q08881 1-620): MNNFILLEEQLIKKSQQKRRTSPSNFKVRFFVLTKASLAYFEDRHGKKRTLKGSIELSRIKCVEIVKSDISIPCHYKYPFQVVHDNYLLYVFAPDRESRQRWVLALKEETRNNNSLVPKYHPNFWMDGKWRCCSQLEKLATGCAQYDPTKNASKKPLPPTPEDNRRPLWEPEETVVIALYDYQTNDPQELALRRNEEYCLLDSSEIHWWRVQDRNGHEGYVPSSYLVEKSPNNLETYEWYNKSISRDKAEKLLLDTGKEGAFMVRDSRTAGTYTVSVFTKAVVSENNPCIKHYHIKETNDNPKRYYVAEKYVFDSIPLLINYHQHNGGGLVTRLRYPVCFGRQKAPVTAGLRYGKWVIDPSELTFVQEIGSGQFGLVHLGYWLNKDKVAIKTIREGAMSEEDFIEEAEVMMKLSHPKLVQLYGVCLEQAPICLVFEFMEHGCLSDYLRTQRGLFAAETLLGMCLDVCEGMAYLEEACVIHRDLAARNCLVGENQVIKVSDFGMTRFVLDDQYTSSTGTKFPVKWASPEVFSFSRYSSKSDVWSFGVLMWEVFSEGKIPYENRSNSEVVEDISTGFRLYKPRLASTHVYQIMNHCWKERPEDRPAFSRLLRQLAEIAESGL
In words: Inhibitory activity against ITK, ADP-Glo Kinase system (Promega). It counts as biochemical. In outline:
as §1

The mark [1] stands for this setting: 1mM ATP, read-out: BTK IC50(nM) 1mM ATP.
[2] abbreviates: 1mM ATP, read-out: ITK IC50(nM) 1mM ATP.
The mark [3] stands for this setting: Km ATP (BTK: 10 uM), read-out: BTK IC50(nM) Km ATP.
Where [4] appears, read: Km ATP (ITK: 25uM), read-out: ITK IC50(nM) Km ATP.

T1 sequence (Q06187 whole entry): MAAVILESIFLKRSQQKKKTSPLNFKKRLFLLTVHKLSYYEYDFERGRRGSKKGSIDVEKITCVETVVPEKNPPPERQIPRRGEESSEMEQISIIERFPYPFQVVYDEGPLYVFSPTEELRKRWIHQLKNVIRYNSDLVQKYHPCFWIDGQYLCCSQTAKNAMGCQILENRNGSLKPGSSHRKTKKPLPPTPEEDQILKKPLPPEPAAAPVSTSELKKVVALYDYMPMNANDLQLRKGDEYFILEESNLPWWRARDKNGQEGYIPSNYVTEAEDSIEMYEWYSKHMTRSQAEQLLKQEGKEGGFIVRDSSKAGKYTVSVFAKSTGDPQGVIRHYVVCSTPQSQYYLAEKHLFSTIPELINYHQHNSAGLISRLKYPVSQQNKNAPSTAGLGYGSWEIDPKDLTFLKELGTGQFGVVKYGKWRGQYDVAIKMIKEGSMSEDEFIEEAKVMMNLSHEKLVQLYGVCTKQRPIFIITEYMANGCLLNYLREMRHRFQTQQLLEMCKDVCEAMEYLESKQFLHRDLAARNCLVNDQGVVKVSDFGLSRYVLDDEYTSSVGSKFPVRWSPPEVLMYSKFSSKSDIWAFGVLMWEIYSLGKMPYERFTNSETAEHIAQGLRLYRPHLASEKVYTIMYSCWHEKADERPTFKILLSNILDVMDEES

For the compound `C=C(F)C(=O)N1CC[C@H](Oc2nc(Nc3ncc(C)s3)cc3c2ccn3CC(C)C)C1` [Example 224, (S)-2-fluoro-1-(3-((1-isobutyl-6-((5-methylthiazol-2-yl)amino)-1H-pyrrolo[3,2-c]pyridin-4-yl)oxy)pyrrolidin-1-yl)prop-2-en-1-one], the IC50 at BTK (setting [1]) and at ITK (setting [2]) was > 500 nM each time.

Take `C=CC(=O)N1CC[C@H](Oc2nc(Nc3nccc(OC)n3)cc3c2ccn3C(C)C)C1` [Example 183, (S)-1-(3-((1-isopropyl-6-((4-methoxypyrimidin-2-yl)amino)-1H-pyrrolo[3,2-c]pyridin-4-yl)oxy)pyrrolidin-1-yl)prop-2-en-1-one]: the IC50 at BTK (setting [1]) and at ITK (setting [2]) was > 500 nM each time.

Regarding `C=CC(=O)N1CCC[C@H](Oc2nc(Nc3ncc(C)s3)cc3c2ccn3C)C1` [Example 158, (S)-1-(3-((1-methyl-6-((5-methylthiazol-2-yl)amino)-1H-pyrrolo[3,2-c]pyridin-4-yl)oxy)piperidin-1-yl)prop-2-en-1-one], the IC50 (commonly the point on the concentration scale where inhibition reaches its midpoint) on BTK (setting [1]) was ≤ 20 nM; on ITK (setting [2]) it was 20 to 100 nM.

Turning to `C=CC(=O)N1CC[C@@H]1COc1nc(Nc2ncc(C)s2)cc2c1ccn2CC(F)(F)F` [Example 208, (R)-1-(2-(((6-((5-methylthiazol-2-yl)amino)-1-(2,2,2-trifluoroethyl)-1H-pyrrolo[3,2-c]pyridin-4-yl)oxy)methyl)azetidin-1-yl)prop-2-en-1-one], the IC50 at BTK (setting [1]) and at ITK (setting [2]) was ≤ 20 nM each time.

With `C=CC(=O)N1C2C=C(c3nc(Nc4ncc(C)s4)cc4c3ccn4CC(F)(F)F)CC1CC2` (centres unmarked) [Example 35, 1-(3-(6-((5-methylthiazol-2-yl)amino)-1-(2,2,2-trifluoroethyl)-1H-pyrrolo[3,2-c]pyridin-4-yl)-8-azabicyclo[3.2.1]oct-2-en-8-yl)prop-2-en-1-one], the IC50 at BTK (setting [1]) and at ITK (setting [2]) was ≤ 20 nM throughout.

For `C=CC(=O)N1CC[C@H](Oc2nc(Nc3ncc(C)s3)cc3c2ccn3CC2CCCCC2)C1` [Example 129, (S)-1-(3-((1-(cyclohexylmethyl)-6-((5-methylthiazol-2-yl)amino)-1H-pyrrolo[3,2-c]pyridin-4-yl)oxy)pyrrolidin-1-yl)prop-2-en-1-one], the IC50 on BTK (setting [1]) and at ITK (setting [2]) was ≤ 20 nM in each case.

In the case of `C=CC(=O)N1CC[C@H](Oc2nc(Nc3ncc(C)s3)cc3c2ccn3[C@@H](C)CC)C1` [Example 111, 1-((S)-3-((1-((S)-sec-butyl)-6-((5-methylthiazol-2-yl)amino)-1H-pyrrolo[3,2-c]pyridin-4-yl)oxy)pyrrolidin-1-yl)prop-2-en-1-one], the IC50 on BTK (setting [1]) and on ITK (setting [2]) was ≤ 20 nM throughout.

Regarding `C=CC(=O)N1C[C@H](F)[C@H](Oc2nc(Nc3ccn(C)n3)cc3c2ccn3CC(C)C)C1` [Example 197, 1-((3S,4R)-3-fluoro-4-((1-isobutyl-6-((1-methyl-1H-pyrazol-3-yl)amino)-1H-pyrrolo[3,2-c]pyridin-4-yl)oxy)pyrrolidin-1-yl)prop-2-en-1-one], the IC50 on BTK (setting [1]) and at ITK (setting [2]) was > 500 nM throughout.

Turning to `C=CC(=O)N1CC(C)(Oc2nc(Nc3ncc(C)s3)cc3c2ccn3CC2CC2)C1` [Example 167, 1-(3-((1-(cyclopropylmethyl)-6-((5-methylthiazol-2-yl)amino)-1H-pyrrolo[3,2-c]pyridin-4-yl)oxy)-3-methylazetidin-1-yl)prop-2-en-1-one], the IC50 at BTK (setting [1]) and at ITK (setting [2]) was ≤ 20 nM each time.

For `C=CC(=O)N1CC[C@H](Oc2nc(Nc3ncc(C)s3)cc3c2ccn3[C@H](C)C(F)(F)F)C1` [Example 213, 1-((S)-3-((6-((5-methylthiazol-2-yl)amino)-1-((R)-1,1,1-trifluoropropan-2-yl)-1H-pyrrolo[3,2-c]pyridin-4-yl)oxy)pyrrolidin-1-yl)prop-2-en-1-one], the IC50 on BTK (setting [1]) and at ITK (setting [2]) was ≤ 20 nM throughout.

Consider `C=CC(=O)N1CC[C@@H](Oc2nc(Nc3ncc(C)s3)cc3c2ccn3CC(C)C)C1` (stereo in doubt) [Example 82, (R)-1-(3-((1-isobutyl-6-((5-methylthiazol-2-yl)amino)-1H-pyrrolo[3,2-c]pyridin-4-yl)oxy)pyrrolidin-1-yl)prop-2-en-1-one], for which the IC50 at BTK (setting [1]) and at ITK (setting [2]) was > 500 nM throughout.

Regarding `C=CC(=O)N1CC=C(c2nc(Nc3ncc(C)s3)cc3c2ccn3CC2CCCC2)CC1` [Example 10, 1-(4-(1-(cyclopentylmethyl)-6-((5-methylthiazol-2-yl)amino)-1H-pyrrolo[3,2-c]pyridin-4-yl)-3,6-dihydropyridin-1(2H)-yl)prop-2-en-1-one], the IC50 on BTK (setting [3]) is ≤ 20 nM; on ITK (setting [4]) it was 20 to 100 nM.

Turning to `C=CC(=O)N1CCC[C@H](Oc2nc(Nc3ncc(C)s3)cc3c2ccn3CCC)C1` [Example 160, (S)-1-(3-((6-((5-methylthiazol-2-yl)amino)-1-propyl-1H-pyrrolo[3,2-c]pyridin-4-yl)oxy)piperidin-1-yl)prop-2-en-1-one], the IC50 at BTK (setting [1]) and at ITK (setting [2]) was 100 to 500 nM each time.

In the case of `C=CS(=O)(=O)N1C[C@H](F)[C@H](Oc2nc(Nc3ncc(C)s3)cc3c2ccn3CC(C)C)C1` [Example 228, N-(4-(((3R,4S)-4-fluoro-1-(vinylsulfonyl)pyrrolidin-3-yl)oxy)-1-isobutyl-1H-pyrrolo[3,2-c]pyridin-6-yl)-5-methylthiazol-2-amine], the IC50 on BTK (setting [1]) and at ITK (setting [2]) was ≤ 20 nM in each case.

For the compound `C=CC(=O)N1C2C=C(c3nc(Nc4ncc(C)s4)cc4c3ccn4CC3CC3)CC1CC2` (centres unmarked) [Example 39, 1-(3-(1-(cyclopropylmethyl)-6-((5-methylthiazol-2-yl)amino)-1H-pyrrolo[3,2-c]pyridin-4-yl)-8-azabicyclo[3.2.1]oct-2-en-8-yl)prop-2-en-1-one], the IC50 on BTK (setting [1]) and on ITK (setting [2]) was ≤ 20 nM in each case.

Take `C=CC(=O)N1CC=C(c2nc(Nc3ncc(C)s3)cc3c2ccn3[C@H](C)CC)CC1` [Example 14, (R)-1-(4-(1-(sec-butyl)-6-((5-methylthiazol-2-yl)amino)-1H-pyrrolo[3,2-c]pyridin-4-yl)-3,6-dihydropyridin-1(2H)-yl)prop-2-en-1-one]: the IC50 at BTK (setting [3]) and at ITK (setting [4]) was ≤ 20 nM in each case.

`C=CC(=O)Nc1cc(-c2nc(Nc3ncc(C)s3)cc3c2ccn3CC(C)C)c(F)cc1F` [Example 67, N-(2,4-difluoro-5-(1-isobutyl-6-((5-methylthiazol-2-yl)amino)-1H-pyrrolo[3,2-c]pyridin-4-yl)phenyl)acrylamide]: the IC50 on BTK (setting [1]) is ≤ 20 nM; at BTK (setting [3]), ≤ 20 nM; at ITK (setting [2]) it was 20 to 100 nM; at ITK (setting [4]), ≤ 20 nM.

On to `C=CC(=O)N1CC[C@@H]1COc1nc(Nc2ncc(C)s2)cc2c1ccn2C(C)C` [Example 90, (R)-1-(2-(((1-isopropyl-6-((5-methylthiazol-2-yl)amino)-1H-pyrrolo[3,2-c]pyridin-4-yl)oxy)methyl)azetidin-1-yl)prop-2-en-1-one], for which the IC50 on BTK (setting [1]) and at ITK (setting [2]) was ≤ 20 nM each time.

`C=CC(=O)Nc1c(C)ccc(-c2nc(Nc3ncc(C)s3)cc3c2ccn3C)c1C` [Example 56, N-(2,6-dimethyl-3-(1-methyl-6-((5-methylthiazol-2-yl)amino)-1H-pyrrolo[3,2-c]pyridin-4-yl)phenyl)acrylamide]: the IC50 is ≤ 20 nM at BTK (setting [1]), ≤ 20 nM at BTK (setting [3]), > 500 nM at ITK (setting [2]) and ≤ 20 nM at ITK (setting [4]).

As to `C=CC(=O)N1CC=C(c2nc(Nc3ncc(C)s3)cc3c2ccn3CC(F)(F)F)CC1` [Example 19, 1-(4-(6-((5-methylthiazol-2-yl)amino)-1-(2,2,2-trifluoroethyl)-1H-pyrrolo[3,2-c]pyridin-4-yl)-3,6-dihydropyridin-1(2H)-yl)prop-2-en-1-one], the IC50 on BTK (setting [1]) is 20 to 100 nM; on BTK (setting [3]) it was ≤ 20 nM; on ITK (setting [2]), 100 to 500 nM; on ITK (setting [4]), ≤ 20 nM.

Turning to `C=CC(=O)N1CC[C@H](Oc2nc(Nc3cc(C)ncn3)cc3c2ccn3CC(C)C)C1` [Example 104, (S)-1-(3-((1-isobutyl-6-((6-methylpyrimidin-4-yl)amino)-1H-pyrrolo[3,2-c]pyridin-4-yl)oxy)pyrrolidin-1-yl)prop-2-en-1-one], the IC50 on BTK (setting [1]) and at ITK (setting [2]) was 20 to 100 nM in each case.

Take `C=CC(=O)N1CC=C(c2nc(Nc3ncc(C)s3)cc3c2ccn3CC(F)F)C(C)C1` (centres unmarked) [Example 25, 1-(4-(1-(2,2-difluoroethyl)-6-((5-methylthiazol-2-yl)amino)-1H-pyrrolo[3,2-c]pyridin-4-yl)-3-methyl-3,6-dihydropyridin-1(2H)-yl)prop-2-en-1-one]: the IC50 on BTK (setting [1]) and at ITK (setting [2]) was > 500 nM in each case.
